Measured values reported in patent publication US6730667B2, “Iontophoresis disc pain blocker” (priority 2001, dated 2004).

System: overactive nerve fibers
Assay: Iontophoretic delivery, practical patient experience
Type: in vivo, human
Details: ketamine at 2 to 4% or higher, clonidine at 0.2 to 0.4%, unbuffered; positive polarity
Method: Once the desired nerve or nerves are identified, a preselected composition of pharmaceuticals 14 is prepared for an administration step 16. Administration may be topical, by methods including gel 18 or spray 20. Iontophoresis is a preferred method. The composition is applied to a patch 22 for iontophoretic administration. Suitable patch structures include both single and multi-layered gel matrix discs. For example, a patch may be arranged with one or more layers of pH buffered electrolytes between drug layers. Ionotphoresis 24 delivers the drugs by application of tiny unipolar or switchable bipolar micro amperage current to the gel disc over the next 24 to 36 plus hours, producing blockade to the excessive nerve firing.
These are ketamine, which is an NMDA receptor blocker, at 2 to 4% or higher, and clonidine, which is an […], at 0.2 to 0.4% concentration, unbuffered. Both have positive polarity, and are positive charged. Selection of positive polarity would push the drug along the pathway of least resistance, finding the involved overactive nerve fibers; and pain blockade would occur.

| Structure (SMILES) | suitability for delivery by iontophoresis |
| --- | --- |
| CNC1(c2ccccc2Cl)CCCCC1=O (centres unmarked) [ketamine] | work well |
| Clc1cccc(Cl)c1N=C1NCCN1 [clonidine] | work well |
